According to US20130190394A1, “Applications Of Arctigenin In Formulating Drugs For Preventing Or Treating Diseases Related To Red Blood Cell Reduction” (priority 2010, published 2013):
Structures can show the parent of a compound that is named as a salt.

Columns and labels:
[1] = system: Tumor-bearing mice (murine cancer cell line s180); assay: Effects of Arctigenin on myelosuppression caused by chemotherapy in tumor-bearing mice (blood routine examination); format: in vivo, Kunming mice; conditions: for Neutrophil / White Blood Cells / platelet: s180 tumor-bearing mice, 10 days once per day, Docetaxel 75 mg/m^2/d, Imatinib Mesylate 222.2 mg/m^2/d tail vein, Arctigenin 10 mg/m^2/d peritoneal, n=10
Protocol: (§1) The cell suspension was injected into abdominal cavity of mice under sterile conditions. The mice were sacrificed by cervical dislocation at 7 days after inoculation when the abdominal cavity expanded obviously, and then soaked in a flask with 75% ethanol for 2-3 min. The sterilized mice were placed on a superclean bench with abdomen exposed. The ascites were taken with sterile injectors and stored in sterile vials for further use. The ascites was counted by Trypan blue staining, and then diluted to 2.0×10^7 cell/ml with physiological saline. The animals were inoculated with the dilutions in the right armpit at 0.2 ml/animal.
The inoculated animals were divided randomly into following six groups with 10 animals each group (F:M=1:1): • 1. Model Group (Group M): receiving peritoneal injection of 0.9% physiological saline; • 2. Docetaxel Group (Group D): receiving 75 mg/m^2/d Docetaxel; • 3. […] Arctigenin Group (Group A): receiving 10 mg/m^2/d Arctigenin; • 5. Docetaxel plus Arctigenin Group (Group D+A): receiving 75 mg/m^2/d Docetaxel plus 10 mg/m^2/d Arctigenin; • 6.
(§2) Docetaxel and Imatinib Mesylate were administered via tail vein injection at dosages of 20 ml/kg. Arctigenin was administered via peritoneal injection at a dosage of 10 ml/kg. The administration was given to each group once per day for 10 days in total. During the experimental process, the animals were observed everyday for their diets, survivals and behaviors and weighted every day. At the end of the experiment, the animals were anaesthetized and anatomize to draw blood from abdominal vena cava for blood routine examination, including total white blood cell count, total platelet count and neutrophil count.

[2] = system: mice received ^60Co radiation at 4Gy; assay: Effects of Arctigenin on blood cell counts of mice under 60Co radiation; format: in vivo, Kunming mice
Excerpt: 1.1 Animals: Kunming mice (purchased from National Institute for the Control of Pharmaceutical and Biological Products, China; Laboratory Animal NO: SCXK II-00-0010; female/male ratio at 1:1; Age: 7 weeks; […] The rest mice were included in the experiment. The mice fulfilled the experimental requirements after radiation were divided randomly into the following groups of: model group, group of burdock extract and Arctigenin group (each group: n=10; F/M=1:1). Each group was subjected to treatment or administration as follows: • 1. Normal Group (Group N): peritoneal injection of 0.9% physiological saline at a volume of 10 ml/kg; • 2. Model Group (Group M): peritoneal injection of 0.9% physiological saline at a dose of […]; • 3. Group of burdock Extract (Group E): peritoneal injection of water […] of Arctium lappa at a dose of 3.5 ml/kg/d; • 4. Arctigenin Group (Group A): peritoneal injection of 10 mg/kg/d Arctigenin at a volume of 10 ml/kg. Said burdock extract was prepared by: 1) placing burdock in a pot, adding water till the plant was immerged; 2) soaking burdock for 30 min for promoting the extraction of the effective components; 3) rapidly heating till boiling, fully boiling for 1-3 min, further heating for 20-30 min for concentration, and filtrating through sterile gauzes into a beaker; and 4) mixing the first dose with re-extracted agents uniformly after the first extraction for balancing their effects. 200 ml water extracts were prepared from 1 kg burdock. The administration was given to each group once per day for 10 days in total. During the experimental process, the animals were observed everyday for their diets, survivals and behaviors and weighted every day. At the end of the experiment, the animals were anaesthetized and anatomize to take blood from abdominal vena cava for blood routine examination, including total white blood cell count and total platelet count.

[3] = Body weight and tolerability of tumor-bearing mice during administration; format: in vivo, Kunming mice; conditions: for Body weight before administration: mouse, in vivo
Protocol: as §1, with “The murine cancer cell line s180 was cultured in 1640 culture medium at 37° C., 5% CO2, sub-cultured every two days on average till logarithmic growth phase and then prepared into single cell suspension at 3.0×10^7 cell/ml with physiological saline. The cell” for “The cell”
The inoculated animals were divided randomly into following six groups with 10 animals each group (F:M=1:1): • 1. Model Group (Group M): receiving peritoneal injection of 0.9% physiological saline; • 2. Docetaxel Group (Group D): receiving 75 mg/m^2/d Docetaxel; • 3. Imatinib Mesylate Group (Group IM): receiving 222.2 mg/m^2/d Imatinib Mesylate; • 4. Arctigenin Group (Group A): receiving 10 mg/m^2/d Arctigenin; • 5. Docetaxel plus Arctigenin Group (Group D+A): receiving 75 mg/m^2/d Docetaxel plus 10 mg/m^2/d Arctigenin; • 6. Imatinib Mesylate plus Arctigenin Group (Group IM+A): receiving 222.2 mg/m^2/d Imatinib Mesylate plus 10 mg/m^2/d Arctigenin.
as §2

[4] = system: NOD mouse; assay: Effects of Arctigenin on white blood cell and platelet of NOD mouse; format: in vivo, NOD/Ltj mice; conditions: for White Blood Cells / platelets: NOD/Ltj mice, n=13
Excerpt: Non-obese diabetic or NOD mice is a large mouse strain, including NOD/Scid, NOD/Ltj mice and the like. Yi Feng (Yi Feng, et al., “In vitro Expansion of Cord Blood Megakaryocyte Progenitor”, ACTA Academiae Medicinae Sinicae, Vol. 27, NO. 2, pp 199-204) directly expanded megakaryocyte progenitor from cord blood CD34+ cells by using thrombopoietin (TPO), interleukin-11 (IL-11) and heparin in combination. Intravenous infusion of the megakaryocytes expanded for 7 days (at a concentration of 5×10^6) into NOD/SCID mice received pre-treatment of radiation could accelerate the recovery of platelet and white blood cell account and improved the survival of the mice.
1.1 Animals: 52 NOD/Ltj mice (purchased from Vital River Laboratory Animal Technology Co., Ltd., Beijing; Laboratory Animal NO: SCXK (BJ) 2006-2009), female, Age: 5 weeks, Body weight: 16-20 g.
After one week of adaptive feeding, healthy NOD mice aged of 5 weeks were divided randomly into 4 groups: • I. Model Control Group: 13 animals; • II. Positive Control Group: 13 animals receiving gavage of interleukin at dose of 10.0 mg/kg every day; • III. Low-dose Arctigenin Group: 13 animals receiving gavage of […] at dose of 30 mg/kg every day; • IV. High-dose Arctigenin Group: 13 animals receiving gavage of […] at dose of 60 mg/kg every day.
The administration was given consecutively to each group once per day, and stopped after 15 days. The animals were then anaesthetized (3% pentobarbital sodium via intraperitoneal injection at 0.1˜0.15 ml/animal) and 1 ml blood was taken via abdominal vena cava for blood routine examination.

[5] = mice after 60Co 4 Gy whole body radiation, peritoneal injection once per day for 10 days, Arctigenin 10 mg/kg/d, burdock water extract 3.5 ml/kg/d, n=10
[6] = high-dose, gavage 60 mg/kg every day for 15 days
[7] = low-dose, gavage 30 mg/kg every day for 15 days

Row | Neutrophil numbers in comparison with Group M ([1]; tumor-bearing mice, in words) | SMILES | Neutrophil [1] | White Blood Cells [1] | platelet [1] | Total white blood cell count and total neutrophil count compared with the Docetaxel group and the imatinib mesylate group ([1]; tumor-bearing mice, P<0.01, in words) | Total white blood cell count and total neutrophil count compared with the model group ([1]; tumor-bearing mice, P<0.01 or P<0.05, in words) | Total white blood cell count and platelet count in comparison with the model group ([2]; 60Co 4 Gy radiated mice, P<0.01 or P<0.05, in words) | White Blood Cells [2, 5] | platelet [2, 5] | Body weight before administration [3] | Toxic or side effects ([3]; tumor-bearing mice, 10 days administration, in words) | White blood cell counts and platelet counts compared with model group ([4]; NOD mice, low-dose and high-dose groups, in words) | White Blood Cells [4, 6] | platelets [4, 6] | White Blood Cells [4, 7] | platelets [4, 7]
1 |  | COc1cc(C[C@H]2C(=O)OC[C@@H]2Cc2ccc(OC)c(OC)c2)ccc1O [Arctigenin] | 1.316 ± 0.15^#**^$$ 10^9/L | 3.530 ± 0.31^##**^$$ 10^9/L | 687.4 ± 37.3^## 10^9/L | significant increases in total white blood cell count and total neutrophil count | increase in both the total white blood cell count and the total neutrophil count | increase in both total white blood cell count and the platelet count | 4.225 ± 0.51^##$ 10^9/L | 596.2 ± 72.5^#$ 10^9/L | 21.1 ± 3.0 g | does not have significant toxic or side effects | significantly higher | 4.225 ± 0.51^##$ 10^9/L | 780.2 ± 46.5^##$$ 10^9/L | 3.242 ± 0.45^#$ 10^9/L | 730.5 ± 34.6^##$ 10^9/L
2 | decreased significantly | CC(=O)O[C@@]12CO[C@@H]1C[C@H](O)[C@@]1(C)C(=O)[C@H](O)C3=C(C)[C@@H](OC(=O)[C@H](O)[C@@H](NC(=O)OC(C)(C)C)c4ccccc4)C[C@@](O)([C@@H](OC(=O)c4ccccc4)[C@H]21)C3(C)C [Group D, Docetaxel] | 0.670 ± 0.12 10^9/L | 2.773 ± 0.46 10^9/L | 450.6 ± 30.5 10^9/L |  |  |  |  |  | 21.2 ± 1.8 g |  |  |  |  |  | 
3 | decreased significantly | Cc1ccc(NC(=O)c2ccc(CN3CCN(C)CC3)cc2)cc1Nc1nccc(-c2cccnc2)n1 [Group IM, Imatinib Mesylate] | 0.695 ± 0.09 10^9/L | 2.703 ± 0.37 10^9/L | 432.9 ± 34.8 10^9/L |  |  |  |  |  | 21.3 ± 2.3 g |  |  |  |  |  | 
